Tests used:
[1] = system: Common cutworm (Spodoptera litura); format: in vivo; details: 500 ppm; cabbage leaf immersed about 30 seconds; second-instar larvae; eight days after the inoculation; 25° C.
Source text: Insecticidal Effect on Common cutworm (Spodoptera litura)

[2] = system: diamond back moth (Plutella xylostella); format: in vivo; details: 1,000 ppm; Chinese cabbage seedling with eggs immersed about 30 seconds; counted six days after the immersion; 25° C.
Source text: Insecticidal effect on diamond back moth (Plutella xylostella)
Adult diamond back moths were released and allowed to oviposit on a Chinese cabbage seedling. […] Six days after the immersion, the hatched insects were counted. […] [formula] Criterion • A - - - Mortality 100% • B - - - Mortality 99-90% • C - - - Mortality 89-80% • D - - - Mortality 79-50%

[3] = system: rice leafroller (Cnaphalocrosis medinalis); details: 500 ppm; rice lamina immersed about 30 seconds; third-instar larvae; four days after the inoculation; 25° C., humidity 70%
Description: Insecticidal effect on rice leafroller (Cnaphalocrosis medinalis)
After air-dryness, the lamina was placed in a plastic Petri dish with a diameter of 9 cm whose bottom had been covered with a wetted filter paper. The lamina was inoculated with third-instar larvae of rice leafroller, after which the dish was allowed to stand in a room thermostatted at 25° C. and having a humidity of 70%. Four days after the inoculation, the dead and alive were counted and the insecticidal effect was judged according to the criterion shown in Test Example 1. The test was carried out with triplicate groups of 10 insects.

Row | SMILES | insecticidal effect (activity ranking by mortality) [1] | insecticidal effect (activity ranking by mortality) [2] | insecticidal effect (activity ranking by mortality) [3]
1 | CC(C)NC(=O)c1c(I)cccc1C(=O)Nc1ccc(C(F)(C(F)(F)F)C(F)(F)F)nc1 [Q27-136] | B or higher | B or higher | B or higher
2 | Cc1cc(C(F)(C(F)(F)F)C(F)(F)F)ncc1NC(=O)c1cccc(I)c1C(=O)NC(C)(C)C [Q27-142] | B or higher | B or higher | B or higher
3 | CC(C)NC(=O)c1c(Cl)cccc1C(=O)Nc1ccc(Oc2ccc(Cl)cc2Cl)nc1 [Q27-30] | B or higher | B or higher | B or higher
4 | CSCC(C)NC(=O)c1c(I)cccc1C(=O)Nc1cnc(C(F)(C(F)(F)F)C(F)(F)F)cc1C (stereo not shown) [Q27-144, N^1-(4-methyl-2-heptafluoroisopropyl-pyridin-5-yl)-N^2-(1-methyl-2-methylthioethyl),-3-iodophthalamide] | B or higher | B or higher | B or higher
5 | Cc1cc(Cl)ncc1NC(=O)c1cccc(Cl)c1C(=O)NC(C)C [Q27-81] | B or higher | B or higher | B or higher
6 | Cc1cc(Cl)ncc1NC(=O)c1c(Cl)cccc1C(=O)NC(C)C [Q27-128] | B or higher | B or higher | B or higher
7 | CCN(CC)C(=O)c1c(I)cccc1C(=O)Nc1ccc(Cl)cn1 [Q26-32] | B or higher | B or higher | B or higher
8 | CC(C)NC(=O)c1cccc(Cl)c1C(=O)Nc1ccc(Oc2ccc(Br)cc2)nc1 [Q27-124] | B or higher | B or higher | B or higher
9 | CC(C)(C)NC(=O)c1c(I)cccc1C(=O)Nc1ccc(C(F)(F)C(F)(F)C(F)(F)F)nc1 [Q27-141] | B or higher | B or higher | B or higher
10 | CC(C)NC(=O)c1c(Cl)cccc1C(=O)Nc1cnccc1SC(C)C [Q27-31] | B or higher | B or higher | B or higher
11 | CCN(CC)C(=O)c1c(I)cccc1C(=O)Nc1ccc(C(F)(F)C(F)(F)C(F)(F)F)nc1 [Q27-131] | B or higher | B or higher | B or higher
12 | CCN(CC)C(=O)c1c(I)cccc1C(=O)Nc1ccc(Cl)nc1 [Q27-130] | B or higher | B or higher | B or higher
13 | Cc1nc(C(F)(C(F)(F)F)C(F)(F)F)ccc1NC(=O)c1cccc(I)c1C(=O)NC(C)(C)C [Q27-143] | B or higher | B or higher | B or higher
14 | CC(C)NC(=O)c1cccc(Cl)c1C(=O)Nc1ccc(Oc2ccc(Cl)cc2Cl)nc1 [Q27-125] | B or higher | B or higher | B or higher
15 | CC(C)NC(=O)c1c(I)cccc1C(=O)Nc1ccc(C(F)(F)C(F)(F)C(F)(F)F)nc1 [Q27-135] | B or higher | B or higher | B or higher
16 | Cc1nc(C(F)(C(F)(F)F)C(F)(F)F)ccc1NC(=O)c1cccc(I)c1C(=O)NC(C)C [Q27-138] | B or higher | B or higher | B or higher
17 | CSCC(C)(C)NC(=O)c1c(I)cccc1C(=O)Nc1ccc(C(F)(C(F)(F)F)C(F)(F)F)nc1 [Q27-233] | B or higher | B or higher | –
18 | CSCC(C)NC(=O)c1c(C(=O)Nc2ccc(OC(C(F)(F)F)C(F)(F)F)nc2C)ccc(Cl)c1Cl (stereo not shown) [Q27-334] | B or higher | B or higher | –
19 | CSCC(C)NC(=O)c1c(I)cccc1C(=O)Nc1ccc(OC(F)(F)C(F)OC(F)(F)C(F)(F)C(F)(F)F)nc1Cl (stereo not shown) [Q27-407] | B or higher | B or higher | –
20 | CC(C)(CS(C)(=O)=O)NC(=O)c1c(I)cccc1C(=O)Nc1cccnc1C(F)(C(F)(F)F)C(F)(F)F [Q27-239] | B or higher | B or higher | –

Row | SMILES | insecticidal effect (activity ranking by mortality) [1] | insecticidal effect (activity ranking by mortality) [2] | insecticidal effect (activity ranking by mortality) [3]
21 | CSCC(C)(C)NC(=O)c1c(I)cccc1C(=O)Nc1c(Cl)cc(C(F)(C(F)(F)F)C(F)(F)F)nc1Cl [Q27-240] | B or higher | B or higher | –
22 | CC(C)(CS(C)(=O)=O)NC(=O)c1c(I)cccc1C(=O)Nc1ccc(OC(C(F)(F)F)C(F)(F)F)nc1Cl [Q27-267] | B or higher | B or higher | –
23 | CSCC(C)NC(=O)c1c(I)cccc1C(=O)Nc1ccc(C(F)(C(F)(F)F)C(F)(F)F)nc1Cl (stereo not shown) [Q27-232] | B or higher | B or higher | –
24 | Cc1nc(OC(C(F)(F)F)C(F)(F)F)ccc1NC(=O)c1cccc([N+](=O)[O-])c1C(=O)NC(C)(C)CS(C)(=O)=O [Q27-353] | B or higher | B or higher | –
25 | COc1nc(C(F)(C(F)(F)F)C(F)(F)F)ccc1NC(=O)c1cccc(I)c1C(=O)NC(C)CSC (stereo not shown) [Q27-241] | B or higher | B or higher | –
26 | CSCC(C)(C)NC(=O)c1c(I)cccc1C(=O)Nc1ccc(OC(F)(F)C(F)F)nc1Cl [Q27-388] | B or higher | B or higher | –
27 | Cc1nc(C(F)(C(F)(F)F)C(F)(F)F)ccc1NC(=O)c1cccc(I)c1C(=O)NC(C)(C)CS(C)(=O)=O [Q27-155] | B or higher | B or higher | –
28 | Cc1nc(OC(C(F)(F)F)C(F)(F)F)ccc1NC(=O)c1ccccc1C(=O)NC(C)(C)C[S+](C)[O-] (stereo not shown) [Q27-289] | B or higher | B or higher | –
29 | Cc1nc(OC(F)(F)C(F)OC(F)(F)C(F)(F)C(F)(F)F)ccc1NC(=O)c1cccc(I)c1C(=O)NC(C)C (stereo not shown) [Q27-397] | B or higher | B or higher | –
30 | Cc1nc(OC(C(F)(F)F)C(F)(F)F)ccc1NC(=O)c1cccc(Cl)c1C(=O)NC(C)(C)C [Q27-298] | B or higher | B or higher | –
31 | CC(C)NC(=O)c1c(I)cccc1C(=O)Nc1ccc(C(F)(C(F)(F)F)C(F)(F)F)nc1Cl [Q27-230] | B or higher | B or higher | –
32 | CSc1nc(C(F)(C(F)(F)F)C(F)(F)F)ccc1NC(=O)c1cccc(I)c1C(=O)NC(C)C [Q27-246] | B or higher | B or higher | –
33 | CSCC(C)(C)NC(=O)c1c(I)cccc1C(=O)Nc1cnc(C(F)(C(F)(F)F)C(F)(F)F)cc1C [Q27-150] | B or higher | B or higher | –
34 | C[S+]([O-])CC(C)(C)NC(=O)c1c(I)cccc1C(=O)Nc1cccnc1C(F)(C(F)(F)F)C(F)(F)F (stereo not shown) [Q27-238] | B or higher | B or higher | –
35 | Cc1nc(OC(C(F)(F)F)C(F)(F)F)ccc1NC(=O)c1cccc([N+](=O)[O-])c1C(=O)NC(C)C [Q27-347] | B or higher | B or higher | –
36 | CCN(CC)C(=O)c1c(I)cccc1C(=O)Nc1ccc(C(F)(C(F)(F)F)C(F)(F)F)nc1Cl [Q27-231] | B or higher | B or higher | –
37 | Cc1nc(OC(C(F)(F)F)C(F)(F)F)ccc1NC(=O)c1cccc(Cl)c1C(=O)NC(C)C [Q27-297] | B or higher | B or higher | –
38 | CSCC(C)(C)NC(=O)c1c(I)cccc1C(=O)Nc1ccc(C(F)(C(F)(F)F)C(F)(F)F)nc1SC [Q27-245] | B or higher | B or higher | –
39 | COc1nc(C(F)(C(F)(F)F)C(F)(F)F)ccc1NC(=O)c1cccc(I)c1C(=O)NC(C)C [Q27-242] | B or higher | B or higher | –

From patent publication US6875768B1, “Phthalamide derivatives, intermediates in the production thereof, and agricultural/horticultural insecticides and method for using the same” (Nihon Nohyako Co., Ltd., priority 1999, dated 2005)
